Data published in ChEMBL document CHEMBL1132430, “Protein kinase C ligands based on tetrahydrofuran templates containing a new set of phorbol ester pharmacophores” (J Med Chem, 1999).

Each molecule was assayed against Protein kinase C alpha type (Homo sapiens, UniProt P17252) (assay: Displacement of [3H-20]-phorbol 12,13-dibutyrate(PDBU) from recombinant Protein kinase C alpha).
For CCCCCCCCCCCCCC(=O)OC[C@]1(CO)CC[C@H](CC(=O)OC)O1, the Ki was 2.72 µM.
For CCCCCCCC/C=C\CCCCCCCCOC(=O)/C=C1/COC(CO)(COC(C)=O)C1 (stereo not drawn), the Ki was 1.86 µM.
In the case of CCCCCCCCCCCCCC(=O)OCC1(CO)C/C(=C/C(=O)OC)CO1 (stereo not drawn), the Ki is reported as 0.35 µM.
CCCCCCCCCCCCCC(=O)OCC1(CO)C/C(=C\C(=O)OC)CO1 (stereo not drawn) showed a Ki of 0.35 µM.
For CCCCCCCCCCCCCCOC(=O)C[C@@H]1CC[C@@](CO)(COC(=O)CCCCC)O1, the Ki was 12.8 µM.
With CCCCCCCC/C=C\CCCCCCCCOC(=O)/C=C1\COC(CO)(COC(C)=O)C1 (stereo not drawn) the Ki was 0.85 µM.
CCCCCCCCCCCCCCOC(=O)C[C@H]1CC[C@@](CO)(COC(=O)CCCCC)O1 showed a Ki of 2.38 µM.
For CCCCCCCCCCCCCC(=O)OC[C@]1(CO)CC[C@@H](CC(=O)OC)O1, the Ki was 10.8 µM.
